Laboratory results taken from patent US10882829B2, “Pharmaceutical compounds” (Sareum Limited, priority 2012, dated 2021).

What was measured:
Format in all cases: biochemical
TYK2 kinase = TYK2 kinase (Homo sapiens (Human), UniProt P29597); assay: TYK2 kinase inhibition assay (33P-ATP, Reaction Biology Corp.); conditions: substrate AXLtide, 120 min at room temperature, read-out: In Vitro Enzyme IC50 (nM) TYK2
Protocol: (§1) Compounds of the invention were assayed for their ability to inhibit TYK2 kinase and other JAK kinases.
(§2) Substrates and kinases used in the assays are identified in Table 2 below.

JAK1 = JAK1 (Homo sapiens (Human), UniProt P23458); assay: JAK1 kinase inhibition assay (33P-ATP, Reaction Biology Corp.); conditions: substrate pEY, 120 min at room temperature, read-out: In Vitro Enzyme IC50 (nM) JAK1
Protocol: as §1, §2

JAK2 = JAK2 (Homo sapiens (Human), UniProt O60674); assay: JAK2 kinase inhibition assay (33P-ATP, Reaction Biology Corp.); conditions: substrate pEY, 120 min at room temperature, read-out: In Vitro Enzyme IC50 (nM) JAK2
Protocol: as §1, §2

JAK3 = JAK3 (Homo sapiens (Human), UniProt P52333); assay: JAK3 kinase inhibition assay (33P-ATP, Reaction Biology Corp.); conditions: substrate JAK3tide, 120 min at room temperature, read-out: In Vitro Enzyme IC50 (nM) JAK3
Protocol: as §1, §2

Chain of TYK2 kinase (P29597 833-1187): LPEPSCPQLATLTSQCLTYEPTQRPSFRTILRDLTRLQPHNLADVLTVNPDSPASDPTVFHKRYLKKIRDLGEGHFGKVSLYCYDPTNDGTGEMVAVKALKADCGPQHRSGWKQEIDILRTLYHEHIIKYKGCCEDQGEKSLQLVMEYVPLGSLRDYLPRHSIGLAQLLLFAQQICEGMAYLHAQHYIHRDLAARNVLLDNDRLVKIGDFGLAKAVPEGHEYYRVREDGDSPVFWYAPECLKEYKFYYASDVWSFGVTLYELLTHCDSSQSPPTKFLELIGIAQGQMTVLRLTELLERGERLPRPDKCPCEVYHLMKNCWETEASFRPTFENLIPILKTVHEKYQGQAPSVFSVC
Chain of JAK2 (O60674 809-1132): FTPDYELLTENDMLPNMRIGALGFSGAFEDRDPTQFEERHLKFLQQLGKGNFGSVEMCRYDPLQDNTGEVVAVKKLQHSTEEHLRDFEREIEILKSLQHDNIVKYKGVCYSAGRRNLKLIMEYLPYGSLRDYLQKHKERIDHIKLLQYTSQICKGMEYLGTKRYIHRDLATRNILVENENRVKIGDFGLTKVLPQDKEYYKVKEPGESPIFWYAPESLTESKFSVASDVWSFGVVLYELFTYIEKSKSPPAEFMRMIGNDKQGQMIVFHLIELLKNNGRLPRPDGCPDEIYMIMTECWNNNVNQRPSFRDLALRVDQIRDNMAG
Chain of JAK1 (P23458 866-1154): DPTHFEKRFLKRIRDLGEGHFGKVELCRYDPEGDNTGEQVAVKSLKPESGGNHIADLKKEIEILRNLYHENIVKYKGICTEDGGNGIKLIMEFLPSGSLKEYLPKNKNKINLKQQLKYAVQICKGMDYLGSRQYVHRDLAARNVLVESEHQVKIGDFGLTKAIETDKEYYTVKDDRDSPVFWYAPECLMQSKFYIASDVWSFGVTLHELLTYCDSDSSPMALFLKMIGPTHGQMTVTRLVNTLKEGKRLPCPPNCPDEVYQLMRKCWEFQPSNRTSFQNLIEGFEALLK
Chain of JAK3 (P52333 781-1124): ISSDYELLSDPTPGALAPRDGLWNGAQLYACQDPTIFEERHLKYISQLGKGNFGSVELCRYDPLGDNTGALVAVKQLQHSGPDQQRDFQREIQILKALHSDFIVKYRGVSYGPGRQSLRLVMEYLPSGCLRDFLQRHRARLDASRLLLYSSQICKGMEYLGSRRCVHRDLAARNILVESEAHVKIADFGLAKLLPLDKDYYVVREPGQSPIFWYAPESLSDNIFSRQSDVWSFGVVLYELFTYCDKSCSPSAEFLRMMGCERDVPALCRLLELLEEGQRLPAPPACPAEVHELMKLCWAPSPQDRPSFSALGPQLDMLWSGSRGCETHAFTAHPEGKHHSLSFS

| Compound | IC50 (TYK2 kinase) [nM] | IC50 (JAK1) [nM] | IC50 (JAK2) [nM] | IC50 (JAK3) [nM] |
| --- | --- | --- | --- | --- |
| CS(=O)(=O)c1ccc(Nc2oc(-c3c(F)cccc3F)nc2C(N)=O)cc1 [Example 1, 2-(2,6-difluorophenyl)-5-(4-(methylsulfonyl)phenylamino)oxazole-4-carboxamide] | 13.5 | 90.2 | 235 | 405 |
| NC(=O)c1nc(-c2c(F)cccc2F)oc1Nc1ccc(S(N)(=O)=O)cc1 [Example 2, 2-(2,6-difluorophenyl)-5-(4-sulfamoylphenylamino)oxazole-4-carboxamide] | 14.6 | 78.2 | 147 | 419 |
| CN(C)S(=O)(=O)c1ccc(Nc2oc(-c3c(F)cccc3F)nc2C(N)=O)cc1 [Example 3, 2-(2,6-difluorophenyl)-5-(4-(N,N-dimethylsulfamoyl)phenylamino)oxazole-4-carboxamide] | 5.3 | 47.6 | 95 | 359 |
| CNS(=O)(=O)c1ccc(Nc2oc(-c3c(F)cccc3F)nc2C(N)=O)cc1 [Example 4, 2-(2,6-difluorophenyl)-5-(4-(N′-methylsulfamoyl)phenylamino)oxazole-4-carboxamide] | 13.8 | 65.6 | 109 | 387 |
| CN(C)C(=O)c1ccc(Nc2oc(-c3c(F)cccc3F)nc2C(N)=O)cc1 [Example 5, 2-(2,6-difluorophenyl)-5-(4-(dimethylcarbamoyl)phenylamino)oxazole-4-carboxamide] | 9.2 | 88.6 | 112 | 219 |
| NC(=O)c1nc(-c2c(F)cccc2F)oc1Nc1ccc(C(=O)N2CCOCC2)cc1 [Example 9, 2-(2,6-difluorophenyl)-5-(4-(morpholine-4-carbonyl)phenylamino)oxazole-4-carboxamide] | 22.7 | 75.6 | 267 | 423 |
| CNCCCNC(=O)c1ccc(Nc2oc(-c3c(F)cccc3F)nc2C(N)=O)cc1 [Example 11, 5-(4-((3-(methylamino)propyl)carbamoyl)phenylamino)-2-(2,6-difluorophenyl) oxazole-4-carboxamide] | 15.1 | 190 | 338 | 388 |
| CS(=O)(=O)c1ccc(Nc2oc(-c3c(Cl)cccc3Cl)nc2C(N)=O)cc1 [Example 19, 2-(2,6-Dichloro-phenyl)-5-(4-methanesulfonyl-phenylamino)-oxazole-4-carboxylic acid amide] | 2.3 | 21.9 | 87.7 | 214 |
| CS(=O)(=O)c1ccc(Nc2oc(-c3c(F)cccc3Cl)nc2C(N)=O)cc1 [Example 20, 2-(2-Chloro-6-fluoro-phenyl)-5-(4-methanesulfonyl-phenylamino)-oxazole-4-carboxylic acid amide] | 2.7 | 28.7 | 72.6 | 165 |
| CS(=O)(=O)c1ccc(Nc2oc(-c3c(F)cc(F)cc3F)nc2C(N)=O)cc1 [Example 21, 5-(4-Methanesulfonyl-phenylamino)-2-(2,4,6-trifluoro-phenyl)-oxazole-4-carboxylic acid amide] | 68.3 | 241 | 412 | 2180 |
| CS(=O)(=O)c1ccc(Nc2oc(-c3cc(F)ccc3F)nc2C(N)=O)cc1 [Example 22, 2-(2,5-Difluoro-phenyl)-5-(4-methanesulfonyl-phenylamino)-oxazole-4-carboxylic acid amide] | 183 | 843 | 663 | 5500 |

Further lines, results first:

| IC50 (TYK2 kinase) [nM] | IC50 (JAK1) [nM] | IC50 (JAK2) [nM] | IC50 (JAK3) [nM] | Compound |
| --- | --- | --- | --- | --- |
| 25 | 192 | 297 | 472 | NCCCNC(=O)c1ccc(Nc2oc(-c3c(F)cccc3F)nc2C(N)=O)cc1 [Example 6, 5-(4-((3-aminopropyl)carbamoyl)phenylamino)-2-(2,6-difluorophenyl)oxazole-4-carboxamide] |
| 9.8 | 202 | 261 | 419 | NC(=O)c1nc(-c2c(F)cccc2F)oc1Nc1ccc(C(=O)N[C@@H]2CCCNC2)cc1 [Example 7, (R)-2-(2,6-difluorophenyl)-5-(4-(piperidin-3-ylcarbamoyl)phenylamino)oxazole-4-carboxamide] |
| 12.9 | 201 | 268 | 408 | NC(=O)c1nc(-c2c(F)cccc2F)oc1Nc1ccc(C(=O)N[C@H]2CCCNC2)cc1 [Example 8, (S)-2-(2,6-difluorophenyl)-5-(4-(piperidin-3-ylcarbamoyl)phenylamino)oxazole-4-carboxamide] |
| 20.5 | 183 | 311 | 397 | CNCCNC(=O)c1ccc(Nc2oc(-c3c(F)cccc3F)nc2C(N)=O)cc1 [Example 10, 5-(4-((2-(methylamino)ethyl)carbamoyl)phenylamino)-2-(2,6-difluorophenyl) oxazole-4-carboxamide] |
| 23.4 | 169 | 292 | 346 | NC(=O)c1nc(-c2c(F)cccc2F)oc1Nc1ccc(C(=O)N[C@@H]2CCNC2)cc1 [Example 12, (R)-2-(2,6-difluorophenyl)-5-(4-(pyrrolidin-3-ylcarbamoyl)phenylamino)oxazole-4-carboxamide] |
| 11.2 | 123 | 182 | 342 | NC(=O)c1nc(-c2c(F)cccc2F)oc1Nc1ccc(C(=O)N[C@H]2CCNC2)cc1 [Example 13, (S)-2-(2,6-difluorophenyl)-5-(4-(pyrrolidin-3-ylcarbamoyl)phenylamino)oxazole-4-carboxamide] |
| 9.6 | 67.2 | 36 | 126 | NC(=O)c1nc(-c2c(F)cccc2F)oc1Nc1ccc(C(=O)N2CCC[C@@H]2CO)cc1 [Example 14, (R)-2-(2,6-difluorophenyl)-5-(4-(2-(hydroxymethyl)pyrrolidine-1-carbonyl)phenylamino)oxazole-4-carboxamide] |
| 7.5 | 41.1 | 101 | 195 | NC(=O)c1nc(-c2c(F)cccc2F)oc1Nc1ccc(C(=O)NCCO)cc1 [Example 15, 5-(4-((2-hydroxyethyl)carbamoyl)phenylamino)-2-(2,6-difluorophenyl)oxazole-4-carboxamide] |
| 8.4 | 58.1 | 119 | 199 | NC(=O)c1nc(-c2c(F)cccc2F)oc1Nc1ccc(C(=O)NCCCO)cc1 [Example 16, 5-(4-((3-hydroxypropyl)carbamoyl)phenylamino)-2-(2,6-difluorophenyl)oxazole-4-carboxamide] |
| 13.7 | 153 | 167 | 99.2 | NC(=O)c1nc(-c2c(F)cccc2F)oc1Nc1ccc(C(=O)NC2CCNCC2)cc1 [Example 17, 2-(2,6-difluorophenyl)-5-(4-(piperidin-4-ylcarbamoyl)phenylamino)oxazole-4-carboxamide] |
| 13.8 | 118 | 192 | 165 | CN1CCC(NC(=O)c2ccc(Nc3oc(-c4c(F)cccc4F)nc3C(N)=O)cc2)CC1 [Example 18, 5-(4-((1-methylpiperidin-4-yl)carbamoyl)phenylamino)-2-(2,6-difluorophenyl) oxazole-4-carboxamide] |
